Where two headings read alike, the source gives them in different places.
Legend:
Assay type in all cases: cell-based
Details in all cases: CreLuc reporter gene assay
[1] = molecular target: T1, hNPY2R (Homo sapiens, UniProt P49146); assay: hNPY2R CreLuc reporter gene assay in 0.5% and 100% plasma
T1 construct: expressed in transfected cells; host or cells: HEK-293 cells carrying a CRE-luciferase reporter gene
T1 sequence (P49146 1-381): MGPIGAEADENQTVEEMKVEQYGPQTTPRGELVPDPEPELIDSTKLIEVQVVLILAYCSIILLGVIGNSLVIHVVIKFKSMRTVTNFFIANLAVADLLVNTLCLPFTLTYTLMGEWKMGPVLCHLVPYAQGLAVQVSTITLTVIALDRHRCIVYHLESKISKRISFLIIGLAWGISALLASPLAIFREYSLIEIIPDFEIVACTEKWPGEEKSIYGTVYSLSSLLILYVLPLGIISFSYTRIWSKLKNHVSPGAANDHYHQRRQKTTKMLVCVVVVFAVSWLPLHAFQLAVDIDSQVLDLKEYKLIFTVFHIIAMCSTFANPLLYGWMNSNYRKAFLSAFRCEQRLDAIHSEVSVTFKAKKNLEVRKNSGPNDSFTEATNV
Procedure, shortened: (§1)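 HEK-293 cells co-expressing GLP-1 or NPY2 receptor and CHO cells expressing GIP receptor, each carrying a CRE-driven luciferase reporter, were stimulated with peptides for 4 hours at 37 °C. Luminescence was read after Bright-Glo addition. EC50 came from 8-point, four-decade curves fitted by variable-slope non-linear regression.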

[2] = molecular target: T2, hGIPR (Homo sapiens, UniProt P48546); assay: hGIPR CreLuc reporter gene assay in 0.5% and 100% plasma
T2 construct: expressed in transfected cells; host or cells: CHO cells carrying a CRE-luciferase reporter gene
T2 sequence (P48546 22-466): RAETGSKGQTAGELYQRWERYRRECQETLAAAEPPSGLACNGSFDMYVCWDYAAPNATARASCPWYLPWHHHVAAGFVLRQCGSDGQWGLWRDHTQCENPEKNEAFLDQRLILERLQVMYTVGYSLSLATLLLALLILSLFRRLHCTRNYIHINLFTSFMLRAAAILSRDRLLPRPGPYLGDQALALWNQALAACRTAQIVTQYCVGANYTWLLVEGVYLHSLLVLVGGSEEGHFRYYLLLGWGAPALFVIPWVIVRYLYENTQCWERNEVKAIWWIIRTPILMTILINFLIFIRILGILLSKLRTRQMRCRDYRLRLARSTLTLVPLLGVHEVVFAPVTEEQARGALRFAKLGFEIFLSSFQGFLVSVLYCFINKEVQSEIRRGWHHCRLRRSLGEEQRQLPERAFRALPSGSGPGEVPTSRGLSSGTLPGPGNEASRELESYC
Procedure, shortened: as §1

[3] = molecular target: T3, hGLP1R (Homo sapiens, UniProt P43220); assay: hGLP1R CreLuc reporter gene assay in 0.5% and 100% plasma
T3 construct: expressed in transfected cells; host or cells: HEK-293 cells carrying a CRE-luciferase reporter gene
T3 sequence (P43220 24-463): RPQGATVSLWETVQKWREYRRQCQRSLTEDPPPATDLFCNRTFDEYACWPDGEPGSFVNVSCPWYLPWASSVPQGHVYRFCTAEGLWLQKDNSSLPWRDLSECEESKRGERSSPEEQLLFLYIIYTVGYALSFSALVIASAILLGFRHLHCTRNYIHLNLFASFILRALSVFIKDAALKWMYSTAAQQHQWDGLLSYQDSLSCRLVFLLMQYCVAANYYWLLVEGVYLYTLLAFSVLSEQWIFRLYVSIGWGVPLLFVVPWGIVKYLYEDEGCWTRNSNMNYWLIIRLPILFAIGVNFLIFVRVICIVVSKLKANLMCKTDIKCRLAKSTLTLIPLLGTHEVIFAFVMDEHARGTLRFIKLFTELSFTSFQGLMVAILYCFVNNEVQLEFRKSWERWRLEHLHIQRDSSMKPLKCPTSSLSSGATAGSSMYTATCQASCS
Procedure, shortened: as §1

[4] = 0.5% human plasma, read-out: hNPY2R 0.5% hP
[5] = 0.5% human plasma, read-out: hGIPR 0.5% hP
[6] = 0.5% human plasma, read-out: hGLP1R 0.5% hP
[7] = 100% human plasma, read-out: hGIPR 100% hP
[8] = 100% human plasma, read-out: hGLP1R 100% hP

EC50 [1, 4] | EC50 ([1]; 100% human plasma, read-out: hNPY2R 100% hP) | EC50 [2, 5] | EC50 [3, 6] | EC50 [2, 7] | EC50 [3, 8] | Structure (SMILES)
30.4 nM | 197 nM | 0.68 nM | 0.29 nM | – | – | CC[C@H](C)[C@H](NC(=O)[C@H](CC(C)C)NC(=O)[C@H](Cc1c[nH]c2ccccc12)NC(=O)[C@H](CCC(N)=O)NC(=O)[C@@H](NC(=O)[C@H](Cc1ccccc1)NC(=O)[C@H](CCC(=O)O)NC(=O)C(C)(C)NC(=O)[C@H](CCC(N)=O)NC(=O)[C@H](C)NC(=O)[C@H](CCC(N)=O)NC(=O)[C@H](CCCCN)NC(=O)[C@H](CCC(=O)O)NC(=O)[C@H](CC(C)C)NC(=O)C(C)(C)NC(=O)[C@@H](NC(=O)[C@H](CO)NC(=O)[C@H](Cc1ccc(O)cc1)NC(=O)[C@H](CC(=O)O)NC(=O)[C@H](CO)NC(=O)[C@@H](NC(=O)[C@H](Cc1ccccc1)NC(=O)[C@@H](NC(=O)CNC(=O)[C@H](CCC(=O)O)NC(=O)C(C)(C)NC(=O)[C@@H](N)Cc1ccc(O)cc1)[C@@H](C)O)[C@@H](C)O)[C@@H](C)CC)C(C)C)C(=O)N[C@@H](CCCCNC(=O)[C@H](CCC(=O)O)NC(=O)[C@H](CCC(=O)O)NC(=O)[C@H](CCC(=O)O)NC(=O)[C@H](CCC(=O)O)NC(=O)[C@H](CCC(=O)O)NC(=O)CCCCCCCCCCCCCCCCC(=O)O)C(=O)NCC(=O)NCC(=O)N1CCC[C@H]1C(=O)N[C@@H](CO)C(=O)N[C@@H](CCC(=O)O)C(=O)NCC(=O)N[C@@H](C)C(=O)N[C@@H](CO)C(=O)N[C@@H](CC(C)C)C(=O)N[C@@H](CCCNC(=N)N)C(=O)N[C@@H](Cc1c[nH]cn1)C(=O)N[C@@H](Cc1ccc(O)cc1)C(=O)N[C@@H](Cc1ccc(O)cc1)C(=O)N[C@@H](CC(N)=O)C(=O)N[C@@H](Cc1c[nH]c2ccccc12)C(=O)N[C@@H](CC(C)C)C(=O)N[C@H](C(=O)N[C@@H](CCCNC(=N)N)C(=O)N[C@@H](CCC(N)=O)C(=O)N[C@@H](CCCNC(=N)N)C(=O)N[C@@H](Cc1ccc(O)cc1)C(N)=O)[C@@H](C)O [Compound 176, Y-Aib-E-G-T-F-T-S-D-Y-S-I-Aib-L-E-K-Q-A-Q-Aib-E-F-V-Q-W-L-I-K(1,3)-GGPSEGASLRHYYNWLTRQRY-NH2.C18DA-E-E-E-E-E(1,2)]
18 nM | – | 0.1 nM | 0.26 nM | 1.17 nM | 3.11 nM | CC[C@H](C)[C@H](NC(=O)[C@H](CC(C)C)NC(=O)[C@H](Cc1c[nH]c2ccccc12)NC(=O)[C@H](CCC(=O)O)NC(=O)[C@@H](NC(=O)[C@H](Cc1ccccc1)NC(=O)[C@H](C)NC(=O)C(C)(C)NC(=O)[C@H](CCC(N)=O)NC(=O)[C@H](C)NC(=O)[C@H](CCC(N)=O)NC(=O)[C@H](CCCCN)NC(=O)[C@H](CCC(=O)O)NC(=O)[C@H](CC(C)C)NC(=O)C(C)(C)NC(=O)[C@@H](NC(=O)[C@H](CO)NC(=O)[C@H](Cc1ccc(O)cc1)NC(=O)[C@H](CC(=O)O)NC(=O)[C@H](CO)NC(=O)[C@@H](NC(=O)[C@H](Cc1ccccc1)NC(=O)[C@@H](NC(=O)CNC(=O)[C@H](CCC(=O)O)NC(=O)C(C)(C)NC(=O)[C@@H](N)Cc1ccc(O)cc1)[C@@H](C)O)[C@@H](C)O)[C@@H](C)CC)C(C)C)C(=O)N[C@@H](CCCCNC(=O)[C@@H](N)CCCCNC(=O)CC[C@H](NC(=O)CC[C@H](NC(=O)CC[C@H](NC(=O)CC[C@H](NC(=O)CC[C@H](NC(=O)CC[C@H](NC(=O)CCCCCCCCCCCCCCCCCCC(=O)O)C(=O)O)C(=O)O)C(=O)O)C(=O)O)C(=O)O)C(=O)O)C(=O)NCC(=O)NCC(=O)N1CCC[C@H]1C(=O)N[C@@H](CO)C(=O)N[C@@H](CCC(=O)O)C(=O)NCC(=O)N[C@@H](CCC(=O)O)C(=O)N[C@@H](CO)C(=O)N[C@@H](CC(C)C)C(=O)N[C@@H](CCCNC(=N)N)C(=O)N[C@@H](Cc1c[nH]cn1)C(=O)N[C@@H](Cc1ccc(O)cc1)C(=O)N[C@@H](Cc1ccc(O)cc1)C(=O)N[C@@H](CC(N)=O)C(=O)N[C@@H](Cc1c[nH]c2ccccc12)C(=O)N[C@@H](CC(C)C)C(=O)N[C@H](C(=O)N[C@@H](CCCNC(=N)N)C(=O)N[C@@H](CCC(N)=O)C(=O)N[C@@H](CCCNC(=N)N)C(=O)N[C@@H](Cc1ccc(O)cc1)C(N)=O)[C@@H](C)O [Compound 237, Y-Aib-E-G-T-F-T-S-D-Y-S-I-Aib-L-E-K-Q-A-Q-Aib-A-F-V-E-W-L-I-K(1,3)-GGPSEGESLRHYYNWLTRQRY-NH2.C20DA-gGlu-gGlu-gGlu-gGlu-gGlu-gGlu-eLys(1,2)]
17.8 nM | – | 0.19 nM | 0.13 nM | 1.25 nM | 1.78 nM | CC[C@H](C)[C@H](NC(=O)[C@H](CC(C)C)NC(=O)[C@H](Cc1c[nH]c2ccccc12)NC(=O)[C@H](CCC(N)=O)NC(=O)[C@@H](NC(=O)[C@H](Cc1ccccc1)NC(=O)[C@H](C)NC(=O)C(C)(C)NC(=O)[C@H](CCC(N)=O)NC(=O)[C@H](C)NC(=O)[C@H](CCC(N)=O)NC(=O)[C@H](CCCCN)NC(=O)[C@H](CCC(=O)O)NC(=O)[C@H](CC(C)C)NC(=O)C(C)(C)NC(=O)[C@@H](NC(=O)[C@H](CO)NC(=O)[C@H](Cc1ccc(O)cc1)NC(=O)[C@H](CC(=O)O)NC(=O)[C@H](CO)NC(=O)[C@@H](NC(=O)[C@H](Cc1ccccc1)NC(=O)[C@@H](NC(=O)CNC(=O)[C@H](CCC(=O)O)NC(=O)C(C)(C)NC(=O)[C@@H](N)Cc1ccc(O)cc1)[C@@H](C)O)[C@@H](C)O)[C@@H](C)CC)C(C)C)C(=O)N[C@@H](CCCCNC(=O)[C@@H](N)CCCCNC(=O)[C@H](CCC(=O)O)NC(=O)[C@H](CCC(=O)O)NC(=O)[C@H](CCC(=O)O)NC(=O)[C@H](CCC(=O)O)NC(=O)[C@H](CCC(=O)O)NC(=O)[C@H](CCC(=O)O)NC(=O)CCCCCCCCCCCCCCCCC(=O)O)C(=O)NCC(=O)NCC(=O)N1CCC[C@H]1C(=O)N[C@@H](CO)C(=O)N[C@@H](CCC(=O)O)C(=O)NCC(=O)N[C@@H](C)C(=O)N[C@@H](CO)C(=O)N[C@@H](CC(C)C)C(=O)N[C@@H](CCCNC(=N)N)C(=O)N[C@@H](Cc1c[nH]cn1)C(=O)N[C@@H](Cc1ccc(O)cc1)C(=O)N[C@@H](Cc1ccc(O)cc1)C(=O)N[C@@H](CC(N)=O)C(=O)N[C@@H](Cc1c[nH]c2ccccc12)C(=O)N[C@@H](CC(C)C)C(=O)N[C@H](C(=O)N[C@@H](CCCNC(=N)N)C(=O)N[C@@H](CCC(N)=O)C(=O)N[C@@H](CCCNC(=N)N)C(=O)N[C@@H](Cc1ccc(O)cc1)C(N)=O)[C@@H](C)O [Compound 249, Y-Aib-E-G-T-F-T-S-D-Y-S-I-Aib-L-E-K-Q-A-Q-Aib-A-F-V-Q-W-L-I-K(1,3)-GGPSEGASLRHYYNWLTRQRY-NH2.C18DA-E-E-E-E-E-E-eLys(1,2)]
16.9 nM | – | 0.14 nM | 0.08 nM | – | 2.48 nM | CC[C@H](C)[C@H](NC(=O)[C@H](CC(C)C)NC(=O)[C@H](Cc1c[nH]c2ccccc12)NC(=O)[C@H](CCC(N)=O)NC(=O)[C@@H](NC(=O)[C@H](Cc1ccccc1)NC(=O)[C@H](C)NC(=O)C(C)(C)NC(=O)[C@H](CCC(N)=O)NC(=O)[C@H](C)NC(=O)[C@H](CCC(N)=O)NC(=O)[C@H](CCCCN)NC(=O)[C@H](CCC(=O)O)NC(=O)[C@H](CC(C)C)NC(=O)C(C)(C)NC(=O)[C@@H](NC(=O)[C@H](CO)NC(=O)[C@H](Cc1ccc(O)cc1)NC(=O)[C@H](CC(=O)O)NC(=O)[C@H](CO)NC(=O)[C@@H](NC(=O)[C@H](Cc1ccccc1)NC(=O)[C@@H](NC(=O)CNC(=O)[C@H](CCC(=O)O)NC(=O)C(C)(C)NC(=O)[C@@H](N)Cc1ccc(O)cc1)[C@@H](C)O)[C@@H](C)O)[C@@H](C)CC)C(C)C)C(=O)N[C@@H](CCCCNC(=O)[C@H](CCC(=O)O)NC(=O)[C@H](CCC(=O)O)NC(=O)[C@H](CCC(=O)O)NC(=O)[C@H](CCC(=O)O)NC(=O)[C@H](CCC(=O)O)NC(=O)CCCCCCCCCCCCCCCCC(=O)O)C(=O)NCC(=O)NCC(=O)N1CCC[C@H]1C(=O)N[C@@H](CO)C(=O)N[C@@H](CCC(=O)O)C(=O)NCC(=O)N[C@@H](C)C(=O)N[C@@H](CO)C(=O)N[C@@H](CC(C)C)C(=O)N[C@@H](CCCNC(=N)N)C(=O)N[C@@H](Cc1c[nH]cn1)C(=O)N[C@@H](Cc1ccc(O)cc1)C(=O)N[C@@H](Cc1ccc(O)cc1)C(=O)N[C@@H](CC(N)=O)C(=O)N[C@@H](Cc1c[nH]c2ccccc12)C(=O)N[C@@H](CC(C)C)C(=O)N[C@H](C(=O)N[C@@H](CCCNC(=N)N)C(=O)N[C@@H](CCC(N)=O)C(=O)N[C@@H](CCCNC(=N)N)C(=O)N[C@@H](Cc1ccc(O)cc1)C(N)=O)[C@@H](C)O [Compound 257, Y-Aib-E-G-T-F-T-S-D-Y-S-I-Aib-L-E-K-Q-A-Q-Aib-A-F-V-Q-W-L-I-K(1,3)-GGPSEGASLRHYYNWLTRQRY-NH2.C18DA-E-E-E-E-E(1,2)]

— patent US20240247080A1, “GLP1/GIP/NPY2 RECEPTOR TRIPLE AGONISTS” (Boehringer Ingelheim International GmbH, priority 2022, published 2024)
